Experimental data reported in PMC4597613, “Polyhedra structures and the evolution of the insect viruses” (Journal of Structural Biology, 2015).

How the values were obtained:
CPV15 polyhedrin = CPV15 polyhedrin (Trichoplusia ni cypovirus 15, UniProt Q9ELS6); settings: nucleotide trapped in crystal from Sf9 cells; two ATPs in purine cluster site, one on V3 and V2c, the other at the 2-fold axis
CPV18 polyhedrin = CPV18 polyhedrin (Operophtera brumata cypovirus 18, UniProt Q30C70); assay: X-ray crystal structure of polyhedra, […] A; assay type: binding; settings: nucleotide trapped in crystal from Sf9 cells, purine cluster
CPV20 polyhedrin = CPV20 polyhedrin (Simulium ubiquitum cypovirus, UniProt Q0MX25); assay: X-ray crystal structure of polyhedra, […] A; assay type: binding; settings: nucleotide trapped in crystal from Sf9 cells; pyrimidine region in trimer interface; not well ordered, identity inferred from space and hydrogen bonding

Nc1ncnc2c1ncn2[C@@H]1O[C@H](COP(=O)(O)OP(=O)(O)OP(=O)(O)O)[C@@H](O)[C@H]1O [ATP]
X-ray crystal structure of polyhedra, 1.82 A (CPV15 polyhedrin): leaving space for two ATPs in different conformations to CPV1 | X-ray crystal structure of polyhedra, 1.48 A (CPV18 polyhedrin; V4 regions of two chains, H154 to phosphates): ATP is supported by two V4 regions from different polypeptide chains

Nc1nc2c(ncn2[C@@H]2O[C@H](COP(=O)(O)OP(=O)(O)OP(=O)(O)O)[C@@H](O)[C@H]2O)c(=O)[nH]1 [GTP]
X-ray crystal structure of polyhedra, 1.48 A (CPV18 polyhedrin; V2c and V1): GTP hydrogen bonds with V2c and V1

O=c1ccn([C@@H]2O[C@H](COP(=O)(O)OP(=O)(O)OP(=O)(O)O)[C@@H](O)[C@H]2O)c(=O)[nH]1 [UTP]
X-ray crystal structure of polyhedra, 1.83 A (CPV20 polyhedrin): The pyridine in CPV20 is not well ordered, but can be identified as UTP
